In PubChem BioAssay (NCI) one finds GI50 and TGI data, which are given here for nine compounds.

Some test systems named below: ACHN renal; HCT-116 colon; HOP-62 NSCLC; LOX IMVI melanoma; MOLT-4 leukemia; NCI-H226 lung; NCI-H460 lung; RXF 393 renal; SN12C renal; TK-10 renal.
Assay in all cases: DTP human tumour cell line panel, 48 h

SMILES strings stand for the structures.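 Assay format: 96-well plates, 48-hour exposure. GI50 = concentration required for 50% inhibition of growth. The concentration for full growth arrest is given as TGI.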

On to `C=CCn1c2ccccc2c2c3c(c4c5ccccc5n(CC=C)c4c21)C(=O)N(O)C3=O`, for which the GI50 (usually the concentration giving 50% growth inhibition) is 1.6 µM in the test on ACHN renal; 2.29 µM in the test with HCT-116 colon; 2.49 µM with HOP-62 NSCLC; 0.967 µM with LOX IMVI melanoma; 1.02 µM with MOLT-4 leukemia; 6.36 µM in the test with NCI-H226 lung. Further, the GI50 with NCI-H460 lung was 2.78 µM; in the test on RXF 393 renal it was 3.94 µM; in the test on SN12C renal, 3.36 µM; in the test on TK-10 renal, 6.16 µM. For the same compound, the TGI (as a rule, the concentration giving total growth inhibition) came to 3.89 µM with ACHN renal; 12.5 µM in the test on HCT-116 colon; 12.7 µM in the test with HOP-62 NSCLC; 2.43 µM in the test on LOX IMVI melanoma; 5.12 µM in the test on MOLT-4 leukemia; 42.2 µM with NCI-H226 lung. Also, the TGI is 10.7 µM in the test with NCI-H460 lung, 19.6 µM in the test with RXF 393 renal, 13.2 µM in the test on SN12C renal and 35.7 µM with TK-10 renal.
Turning to `Cn1ncc(C#N)c1-c1ccc2c(c1)CN([C@H](CN)Cc1cccc(F)c1)C2=O`, the GI50 in the test with ACHN renal is 13.6 µM; in the test with HCT-116 colon, 12.9 µM; in the test with HOP-62 NSCLC, 23.6 µM; with LOX IMVI melanoma, 20.3 µM; with MOLT-4 leukemia, 0.413 µM; in the test with NCI-H226 lung, 13.6 µM. Also, the GI50 with NCI-H460 lung was 0.752 µM; in the test on RXF 393 renal, 0.172 µM; with SN12C renal, 19.7 µM; in the test on TK-10 renal it was 0.787 µM. The TGI with ACHN renal was greater than 100 µM; in the test with HCT-116 colon, 28.7 µM; in the test with HOP-62 NSCLC, greater than 100 µM; in the test on LOX IMVI melanoma, greater than 100 µM; in the test on MOLT-4 leukemia it was 27.4 µM; in the test with NCI-H226 lung, 65.3 µM. Further, the TGI is greater than 100 µM in the test on NCI-H460 lung, 2.43 µM in the test with RXF 393 renal, greater than 100 µM with SN12C renal and 24 µM in the test on TK-10 renal.
Regarding `Nc1[nH]nc2nc(-c3cc(Cl)ccc3Cl)cc(-c3ccc(F)cc3)c12`, the GI50 with ACHN renal was 31.9 µM; in the test with HCT-116 colon, 18.9 µM; with HOP-62 NSCLC it was 22.7 µM; with LOX IMVI melanoma, 19.3 µM; in the test with MOLT-4 leukemia, 23.2 µM; in the test with NCI-H226 lung, 22.6 µM. Further, the GI50 was 19.7 µM in the test with NCI-H460 lung, 18.3 µM in the test on RXF 393 renal, 20.4 µM in the test on SN12C renal and 52.9 µM in the test with TK-10 renal. Moreover, the TGI with ACHN renal is greater than 100 µM; in the test with HCT-116 colon, 39.7 µM; with HOP-62 NSCLC it was 47.8 µM; in the test with LOX IMVI melanoma, 38 µM; with MOLT-4 leukemia it was greater than 100 µM; in the test with NCI-H226 lung it was 60.6 µM. Moreover, the concentration for total growth inhibition (TGI) is 58 µM in the test on NCI-H460 lung, 42.3 µM in the test on RXF 393 renal, 38.6 µM in the test on SN12C renal and greater than 100 µM with TK-10 renal.
On to `Cc1nc2sc(C(=O)Nc3cccc(Br)c3C)c(N)c2cc1C(O)c1ccccc1` (stereo not given), for which the GI50 in the test with ACHN renal is 0.0743 µM; in the test with HCT-116 colon, 0.0371 µM; with HOP-62 NSCLC, 0.0549 µM; in the test with LOX IMVI melanoma, 0.0496 µM; in the test with MOLT-4 leukemia, 0.0556 µM; in the test with NCI-H226 lung, 0.546 µM. Further, the GI50 was 0.0342 µM in the test on NCI-H460 lung, 0.0294 µM in the test on RXF 393 renal, 0.0581 µM in the test on SN12C renal and 1.49 µM with TK-10 renal. Moreover, the TGI in the test on ACHN renal is 14.3 µM; with HCT-116 colon, 11.8 µM; in the test with HOP-62 NSCLC, 18.5 µM; in the test with LOX IMVI melanoma, 6.93 µM; with MOLT-4 leukemia it was greater than 100 µM; in the test on NCI-H226 lung, 22.4 µM. In addition, the TGI in the test with NCI-H460 lung was 0.156 µM; in the test on RXF 393 renal, 26 µM; in the test with SN12C renal, 6.04 µM; with TK-10 renal, greater than 63 µM.
For the compound `COC(=O)[C@]12CC[C@@H](C)[C@H](C)[C@@H]1C1=CC[C@@H]3[C@@]4(C)C(C=O)=C[C@@](C)(CO)[C@@H]4[C@H](O)C[C@@]3(C)[C@]1(C)CC2`, the GI50 in the test with ACHN renal was 3.47 µM; in the test on HCT-116 colon it was 2.76 µM; in the test on HOP-62 NSCLC, 13.8 µM; with LOX IMVI melanoma it was 2.77 µM; in the test on MOLT-4 leukemia it was 2.79 µM; in the test on NCI-H226 lung, 13.9 µM. The GI50 with NCI-H460 lung is 3.03 µM; in the test on RXF 393 renal it was 2.64 µM; in the test with SN12C renal, 4.85 µM; in the test with TK-10 renal, 2.49 µM. The TGI in the test on ACHN renal came to 12.2 µM; in the test on HCT-116 colon, 8.97 µM; with HOP-62 NSCLC, 29.6 µM; with LOX IMVI melanoma, 11.2 µM; in the test on MOLT-4 leukemia, 8.73 µM; in the test with NCI-H226 lung, 46.9 µM. The TGI was 9.6 µM with NCI-H460 lung, 8.75 µM with RXF 393 renal, 17.3 µM in the test on SN12C renal and 9.42 µM in the test with TK-10 renal.
For `Cc1ccc(N(C=O)c2c([N+](=O)[O-])cc([N+](=O)[O-])c3c2=[N+]([O-])CN=3)cc1`, the TGI was 64 µM with ACHN renal; 67.4 µM in the test on HCT-116 colon; greater than 100 µM in the test with HOP-62 NSCLC; 90.3 µM in the test with LOX IMVI melanoma; 80.4 µM in the test on MOLT-4 leukemia; greater than 100 µM in the test on NCI-H226 lung. Moreover, the TGI was greater than 100 µM in the test with NCI-H460 lung, 42 µM with RXF 393 renal, greater than 100 µM in the test on SN12C renal and 78.7 µM in the test on TK-10 renal.
On to `C/C=C/C(=O)Oc1cccc2cccnc12`, for which the TGI in the test with ACHN renal was greater than 100 µM; in the test on HCT-116 colon it was 18.1 µM; in the test on HOP-62 NSCLC, greater than 100 µM; with LOX IMVI melanoma, greater than 84.6 µM; in the test with MOLT-4 leukemia, greater than 100 µM; in the test with NCI-H226 lung it was 68.6 µM. Further, the TGI in the test with NCI-H460 lung is 23 µM; with RXF 393 renal, 41.1 µM; in the test on SN12C renal, greater than 78.2 µM; with TK-10 renal it was greater than 100 µM.
Regarding `CCOC(=O)C1=C(C)NC(=O)NC1c1ccc(OC)cc1OC` (stereo not given), the concentration for total growth inhibition (TGI) in the test on ACHN renal, in the test with HCT-116 colon, in the test on HOP-62 NSCLC, in the test with LOX IMVI melanoma, in the test on MOLT-4 leukemia and with NCI-H226 lung was greater than 100 µM throughout. Also, the TGI with NCI-H460 lung, in the test with RXF 393 renal, with SN12C renal and in the test on TK-10 renal was greater than 100 µM in each case.
As to `CN1CCC2(CC1)N=C(SCC(=O)Nc1cnc3ccccc3c1)C(c1ccc(Br)cc1)=N2`, the GI50 is 1.7 µM in the test with ACHN renal; 1.77 µM with HCT-116 colon; 3.42 µM with HOP-62 NSCLC; 1.66 µM in the test on LOX IMVI melanoma; 1.93 µM in the test on MOLT-4 leukemia; 10.4 µM with NCI-H226 lung. Also, the GI50 is 2.03 µM in the test with NCI-H460 lung, 1.77 µM with RXF 393 renal, 2.1 µM in the test on SN12C renal and 1.99 µM in the test with TK-10 renal. For the same compound, the TGI with ACHN renal is 3.39 µM; in the test with HCT-116 colon, 3.16 µM; in the test on HOP-62 NSCLC it was 14.7 µM; in the test with LOX IMVI melanoma, 3.11 µM; in the test on MOLT-4 leukemia it was 4.37 µM; with NCI-H226 lung it was 26.2 µM. For the same compound, the TGI in the test with NCI-H460 lung came out at 4.28 µM; in the test with RXF 393 renal, 4.29 µM; in the test with SN12C renal, 4.99 µM; with TK-10 renal it was 4.49 µM.
